This data set can be described thus: PET-CT ventilation imaging after inhalation of the radioactive gas. The following applies: male rats. It counts as in vivo, rat (Sprague-Dawley). The protocol:
Imaging studies were conducted with [^18F]CF4.
Male rats (n=2) weighing 350±14 g (Sprague-Dawley, Harlan, Udine, Italy) were used to perform PET studies. The animals were cared for and handled in accordance with the Guidelines for Accommodation and Care of Animals (European Convention for the Protection of Vertebrate Animals Used for Experimental and Other Scientific Purposes) and internal guidelines, and experimental procedures were approved by the Ethical Committee and local authorities.
The radioactive gas was administered by inhalation, by mixing the mixture [^18F]CF4/CF4/Ne obtained at the end of the production process (process A) with the oxygen carrier gas. With that aim, the system depicted in FIG. 3 was implemented.
PET studies were performed using an eXploreVista-CT small animal PET-CT system (GE Healthcare).
Step 1: Rats were anesthetized in an induction chamber using a mixture of 3-4% isoflurane in O2.
Step 2: Animals were rapidly moved into the PET-CT camera, were anaesthesia was maintained with a mixture of 1.5-2.0% isofluorane in O2. During the stay into the PET-CT camera, animals were kept normothermic using a heating blanket (Homeothermic Blanket Control Unit; Bruker). Regular breathing (frequency of 50±10 breaths/minute) was maintained by adjustment of anaesthetic conditions. Respiration and body temperature of the animals were monitored throughout the scan.
Step 3: At t=0 min, with the animal under anaesthesia, acquisition of PET images was started in list mode.
Step 4: At t=1 minute, the syringe pump was started and the radioactive gas ([^18F]CF4, diluted with Neon and non-radioactive CF4, 74 MBq, 2 mCi) was introduced in the main stream of oxygen and consequently administered to the animal.
Step 5: At t=2 minutes, the syringe pump was stopped, and image acquisition was continued until t=10 minutes.
Step 6: After finalising the PET image acquisition, a whole body CT scan was performed, providing anatomical information as well as the attenuation map, for the later image reconstruction.
Images were reconstructed (decay and CT-based attenuation corrected) with OSEM-2D. Twenty nine frames (3×20s, 10×10s, 4×20s and 12×30s) were defined to gain information about the spatiotemporal distribution of the radioactivity. PET images were analysed using PMOD image analysis software (PMOD Technologies Ltd, Zurich, Switzerland). Volumes of interest (VOIs) were manually drawn in the lungs on the CT images. VOIs were then transferred to the PET images and the concentration of radioactivity was obtained for each organ and time frame as cps/cm^3. All frames were finally summed and re-processed to get more accurate images of the distribution of radioactivity within the lungs.

Turning to `FC(F)(F)[18F]` [[^18F]CF4, ^18F-labelled carbon tetrafluoride], the “distribution of the radioactive gas in the lungs (summed PET-CT images, FIG. 8)” value (n=2, 74 MBq in O2/isoflurane, delivered t=1-2 min, all frames summed) is on record as “uniform distribution of the radioactive gas in the lungs”. In addition, for the setting “n=2, after the syringe pump was stopped at t=2 min”, the “elimination of the radioactivity from the lungs after delivery of the radioactive gas is discontinued” value was “almost complete elimination of the radioactivity is achieved in a few seconds”. In addition, the “time-activity curve of a VOI drawn in the whole lungs: plateau (FIG. 9)” value (n=2, during gas delivery) is listed as “reached immediately after the onset of contrast agent administration”. For the same compound, the “distribution of the radioactive gas in the lungs (dynamic images)” value (n=2, dynamic PET frames) is reported as “immediate distribution of the radioactive gas in the lungs”.
